{
  "source": "ChEMBL document CHEMBL1201862",
  "about": "“PubChem BioAssay data set” (2004)",
  "key": {"[1]": {"biological_target": "T1, Kappa-type opioid receptor (Homo sapiens, UniProt P41145)", "T1 sequence (P41145 whole entry)": "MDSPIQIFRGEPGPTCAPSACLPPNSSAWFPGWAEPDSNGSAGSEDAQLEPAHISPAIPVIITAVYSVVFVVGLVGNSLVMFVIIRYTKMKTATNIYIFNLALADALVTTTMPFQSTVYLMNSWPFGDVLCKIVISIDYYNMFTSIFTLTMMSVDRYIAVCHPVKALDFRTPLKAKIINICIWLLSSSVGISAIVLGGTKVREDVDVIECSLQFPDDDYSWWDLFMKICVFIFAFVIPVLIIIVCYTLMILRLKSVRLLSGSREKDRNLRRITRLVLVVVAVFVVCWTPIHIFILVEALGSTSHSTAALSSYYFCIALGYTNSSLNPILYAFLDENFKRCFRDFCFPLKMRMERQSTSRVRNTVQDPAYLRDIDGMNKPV", "assay_type": "functional"}, "[2]": {"biological_target": "T1, Kappa-type opioid receptor", "assay_type": "functional", "remark": "listed apart in the source"}, "Mu-type opioid receptor": {"biological_target": "Mu-type opioid receptor (Homo sapiens, UniProt P35372)", "assay": "HTS Image-Based Screen for Agonists of the MOR Receptor. [Related pubchem assays (depositor defined):AID1777, AID1785, AID1786, AID2133]", "assay_type": "functional"}, "[3]": {"biological_target": "T2, Delta-type opioid receptor (Homo sapiens, UniProt P41143)", "T2 sequence (P41143 whole entry)": "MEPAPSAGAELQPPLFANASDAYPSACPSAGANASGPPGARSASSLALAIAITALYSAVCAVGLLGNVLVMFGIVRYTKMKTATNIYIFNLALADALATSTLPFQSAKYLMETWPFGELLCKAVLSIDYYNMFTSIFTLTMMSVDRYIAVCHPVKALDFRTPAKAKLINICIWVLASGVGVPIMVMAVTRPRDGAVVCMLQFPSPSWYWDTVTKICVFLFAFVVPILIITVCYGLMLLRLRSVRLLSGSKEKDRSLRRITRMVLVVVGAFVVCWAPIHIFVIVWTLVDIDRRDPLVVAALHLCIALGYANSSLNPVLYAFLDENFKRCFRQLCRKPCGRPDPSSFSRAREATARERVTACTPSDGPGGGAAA", "assay": "HTS Image-Based Screen for Agonists of the DOR Receptor. [Related pubchem assays (depositor defined):AID1777, AID1786, AID2133]", "assay_type": "functional"}, "[4]": {"biological_target": "T2, Delta-type opioid receptor", "assay": "HTS Image-Based Screen for Antagonists of the DOR Receptor. [Related pubchem assays (depositor defined):AID1777, AID1785, AID1786, AID2133]", "assay_type": "functional"}, "Beta-galactosidase": {"biological_target": "Beta-galactosidase (Escherichia coli, UniProt Q8VNN2)", "sequence (Q8VNN2 whole entry)": "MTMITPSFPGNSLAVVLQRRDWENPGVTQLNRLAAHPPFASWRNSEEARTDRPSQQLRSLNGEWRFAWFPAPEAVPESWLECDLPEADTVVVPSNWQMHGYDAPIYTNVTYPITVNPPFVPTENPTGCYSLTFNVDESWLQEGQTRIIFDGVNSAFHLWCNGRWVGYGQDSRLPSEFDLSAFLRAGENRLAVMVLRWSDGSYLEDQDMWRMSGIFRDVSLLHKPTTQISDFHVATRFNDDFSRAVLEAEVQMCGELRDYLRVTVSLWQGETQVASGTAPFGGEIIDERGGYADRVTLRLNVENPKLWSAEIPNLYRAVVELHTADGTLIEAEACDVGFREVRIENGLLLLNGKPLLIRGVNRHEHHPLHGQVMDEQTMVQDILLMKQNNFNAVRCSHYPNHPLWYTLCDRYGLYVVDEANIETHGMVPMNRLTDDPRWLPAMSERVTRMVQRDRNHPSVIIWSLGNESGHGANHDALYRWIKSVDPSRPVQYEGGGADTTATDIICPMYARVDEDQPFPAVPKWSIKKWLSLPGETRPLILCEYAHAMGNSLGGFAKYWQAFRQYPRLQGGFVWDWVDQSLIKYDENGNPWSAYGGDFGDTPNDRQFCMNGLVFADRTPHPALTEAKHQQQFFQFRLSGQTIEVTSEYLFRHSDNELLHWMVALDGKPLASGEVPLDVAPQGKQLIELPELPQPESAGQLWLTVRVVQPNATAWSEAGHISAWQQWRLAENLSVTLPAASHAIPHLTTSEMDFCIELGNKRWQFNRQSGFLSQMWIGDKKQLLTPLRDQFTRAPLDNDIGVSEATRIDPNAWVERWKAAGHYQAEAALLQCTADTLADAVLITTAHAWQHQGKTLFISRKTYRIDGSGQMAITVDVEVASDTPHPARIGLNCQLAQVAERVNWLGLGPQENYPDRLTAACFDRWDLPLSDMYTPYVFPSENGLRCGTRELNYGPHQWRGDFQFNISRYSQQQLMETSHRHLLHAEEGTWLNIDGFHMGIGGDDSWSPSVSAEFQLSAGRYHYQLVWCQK", "assay_type": "functional"}, "Cannabinoid receptor 2 [5]": {"biological_target": "T3, Cannabinoid receptor 2 (Homo sapiens, UniProt P34972)", "T3 sequence (P34972 whole entry)": "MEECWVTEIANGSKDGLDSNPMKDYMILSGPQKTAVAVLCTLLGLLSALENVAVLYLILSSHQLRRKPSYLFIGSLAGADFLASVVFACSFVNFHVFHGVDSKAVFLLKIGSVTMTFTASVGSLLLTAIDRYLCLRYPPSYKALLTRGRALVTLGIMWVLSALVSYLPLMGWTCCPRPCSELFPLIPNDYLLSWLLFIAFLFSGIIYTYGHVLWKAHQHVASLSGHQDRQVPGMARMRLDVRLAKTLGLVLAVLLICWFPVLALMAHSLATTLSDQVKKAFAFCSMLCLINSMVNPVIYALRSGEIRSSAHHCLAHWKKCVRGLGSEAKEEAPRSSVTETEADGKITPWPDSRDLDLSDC", "assay": "SAR analysis of agonists of the Cannabinoid Receptor 2 using an Image-Based Assay - Set 2. [Related pubchem assays (depositor defined):AID1961, AID1965]", "assay_type": "functional"}, "Cannabinoid receptor 1": {"biological_target": "Cannabinoid receptor 1 (Homo sapiens, UniProt P21554)", "assay": "SAR analysis of antagonists of the Cannabinoid Receptor 1 using an Image-Based Assay. [Related pubchem assays (depositor defined):AID1961, AID1965]", "assay_type": "functional"}, "[6]": {"biological_target": "G-protein coupled receptor 55 (Homo sapiens, UniProt Q9Y2T6)", "sequence (Q9Y2T6 whole entry)": "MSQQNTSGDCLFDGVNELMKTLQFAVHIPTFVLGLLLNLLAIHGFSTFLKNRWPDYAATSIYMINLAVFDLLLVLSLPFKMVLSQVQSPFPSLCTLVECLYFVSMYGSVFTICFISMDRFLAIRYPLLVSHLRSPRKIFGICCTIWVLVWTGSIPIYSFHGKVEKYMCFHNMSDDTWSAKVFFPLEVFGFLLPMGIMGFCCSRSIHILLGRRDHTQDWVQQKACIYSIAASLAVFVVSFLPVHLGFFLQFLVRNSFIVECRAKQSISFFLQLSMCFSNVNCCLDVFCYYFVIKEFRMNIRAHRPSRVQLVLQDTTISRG", "assay": "SAR analysis of selective Agonists of GPR55 using an Image-Based Assay. [Related pubchem assays (depositor defined):AID1961, AID1965]", "assay_type": "functional"}, "Cannabinoid receptor 2 [7]": {"biological_target": "T3, Cannabinoid receptor 2", "assay": "SAR analysis of antagonists of the Cannabinoid Receptor 2 using an Image-Based Assay - Set 2. [Related pubchem assays (depositor defined):AID1961, AID1965]", "assay_type": "functional"}, "[8]": {"biological_target": "Intestinal-type alkaline phosphatase (Homo sapiens, UniProt P09923)", "assay": "inhibition of human intestinal alkaline phosphatase – biochemical, dose response (AID 488876)", "assay_type": "functional"}, "Aminopeptidase N": {"biological_target": "T4, Aminopeptidase N (Plasmodium falciparum FcB1/Columbia, UniProt O96935)", "T4 sequence (O96935 whole entry)": "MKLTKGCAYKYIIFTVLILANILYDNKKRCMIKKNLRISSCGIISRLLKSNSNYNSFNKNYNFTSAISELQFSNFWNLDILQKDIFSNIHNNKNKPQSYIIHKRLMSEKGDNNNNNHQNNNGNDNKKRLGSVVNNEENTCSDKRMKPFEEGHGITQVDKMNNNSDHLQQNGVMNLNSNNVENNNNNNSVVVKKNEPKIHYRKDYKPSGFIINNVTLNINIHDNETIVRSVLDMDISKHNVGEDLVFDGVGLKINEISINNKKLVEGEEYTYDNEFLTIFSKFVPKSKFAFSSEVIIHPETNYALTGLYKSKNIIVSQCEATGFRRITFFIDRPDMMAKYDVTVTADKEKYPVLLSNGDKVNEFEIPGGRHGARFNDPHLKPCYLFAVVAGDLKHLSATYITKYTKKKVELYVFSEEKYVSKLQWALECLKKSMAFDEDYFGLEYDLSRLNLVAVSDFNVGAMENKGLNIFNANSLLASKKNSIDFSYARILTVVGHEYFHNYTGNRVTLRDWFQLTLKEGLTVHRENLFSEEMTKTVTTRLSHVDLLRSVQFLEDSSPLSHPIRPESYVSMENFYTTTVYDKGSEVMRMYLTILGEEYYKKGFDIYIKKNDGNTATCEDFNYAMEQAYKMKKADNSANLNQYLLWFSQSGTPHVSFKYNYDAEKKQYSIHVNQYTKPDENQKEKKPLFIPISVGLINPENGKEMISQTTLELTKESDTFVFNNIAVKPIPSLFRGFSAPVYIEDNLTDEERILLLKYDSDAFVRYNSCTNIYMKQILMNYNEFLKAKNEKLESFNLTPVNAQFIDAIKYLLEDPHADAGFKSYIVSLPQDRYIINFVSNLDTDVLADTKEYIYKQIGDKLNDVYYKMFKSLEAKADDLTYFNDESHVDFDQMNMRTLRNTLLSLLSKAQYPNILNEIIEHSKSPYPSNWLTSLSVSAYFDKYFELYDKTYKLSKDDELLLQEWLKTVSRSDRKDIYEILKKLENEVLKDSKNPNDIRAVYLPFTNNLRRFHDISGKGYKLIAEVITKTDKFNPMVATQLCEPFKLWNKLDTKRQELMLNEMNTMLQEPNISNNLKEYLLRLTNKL", "assay": "malaria alanyl aminopeptidase activity blockers – biochemical, fluorogenic H-Leu-NHMec substrate, 1536-well (AID 1445)", "design": "species or system Plasmodium falciparum 3D7, 3D7"}, "Procathepsin L": {"biological_target": "Procathepsin L (Homo sapiens, UniProt P07711)", "assay": "CTSL1 protease inhibition – biochemical, QFRET, 1536-well, counter-screen for M1/M17 aminopeptidase inhibitor project, dose response (AID 2214)"}, "Aspartyl aminopeptidase": {"biological_target": "T5, Aspartyl aminopeptidase (Plasmodium falciparum 3D7, UniProt Q8I2J3)", "T5 sequence (Q8I2J3 whole entry)": "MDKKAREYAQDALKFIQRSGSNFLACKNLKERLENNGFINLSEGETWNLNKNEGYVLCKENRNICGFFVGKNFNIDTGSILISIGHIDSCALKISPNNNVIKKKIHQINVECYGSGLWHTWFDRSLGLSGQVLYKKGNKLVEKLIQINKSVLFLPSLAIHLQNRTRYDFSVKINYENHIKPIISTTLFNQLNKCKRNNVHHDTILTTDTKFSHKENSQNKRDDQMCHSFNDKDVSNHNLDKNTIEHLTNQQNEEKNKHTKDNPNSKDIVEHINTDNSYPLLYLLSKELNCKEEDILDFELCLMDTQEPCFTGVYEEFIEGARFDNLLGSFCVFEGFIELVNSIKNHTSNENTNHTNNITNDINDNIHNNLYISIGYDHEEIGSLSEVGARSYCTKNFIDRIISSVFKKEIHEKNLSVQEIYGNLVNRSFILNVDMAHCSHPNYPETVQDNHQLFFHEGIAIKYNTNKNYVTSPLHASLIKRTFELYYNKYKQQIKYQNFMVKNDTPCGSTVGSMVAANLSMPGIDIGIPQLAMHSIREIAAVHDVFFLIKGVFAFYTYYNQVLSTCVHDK", "assay": "Counterscreen for inhibitors of M1 and M17 aminopeptidases: QFRET-based biochemical high throughput dose response assay for inhibitors of the Plasmodium falciparum M18 Aspartyl Aminopeptidase (PFM18AAP). [Related PubChem assays: 1619 (Screening assay (M17LAP inhibitors).), 1445 (Screening assay (M1AAP inhibitors).)]"}, "[9]": {"biological_target": "T6, Alkaline phosphatase, tissue-nonspecific isozyme (Homo sapiens, UniProt P05186)", "T6 sequence (P05186 whole entry)": "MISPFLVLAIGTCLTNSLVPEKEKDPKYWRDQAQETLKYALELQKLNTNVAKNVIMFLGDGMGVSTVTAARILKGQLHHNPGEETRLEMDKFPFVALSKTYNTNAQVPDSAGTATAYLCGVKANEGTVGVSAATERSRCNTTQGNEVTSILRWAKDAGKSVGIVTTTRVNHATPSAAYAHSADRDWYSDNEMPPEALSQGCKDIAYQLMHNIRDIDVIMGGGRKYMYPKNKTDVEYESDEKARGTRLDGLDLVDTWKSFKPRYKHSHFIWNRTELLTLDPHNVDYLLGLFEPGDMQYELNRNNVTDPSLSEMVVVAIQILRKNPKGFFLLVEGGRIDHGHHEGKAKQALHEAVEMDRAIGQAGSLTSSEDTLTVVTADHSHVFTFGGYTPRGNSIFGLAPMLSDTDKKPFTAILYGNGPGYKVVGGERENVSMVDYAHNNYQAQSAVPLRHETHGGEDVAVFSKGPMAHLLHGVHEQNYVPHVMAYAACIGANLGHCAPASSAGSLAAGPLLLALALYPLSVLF", "assay": "TNAP enzyme inhibition by screening hits, dose response, selectivity assay for mouse IAP inhibitor project, biochemical, human TNAP, uHTS hits (AID 488906)", "assay_type": "functional"}, "[10]": {"biological_target": "Intestinal-type alkaline phosphatase (Mus musculus, UniProt P24822)", "assay": "PubChem AID 488785", "assay_type": "functional"}, "[11]": {"biological_target": "Voltage-dependent T-type calcium channel subunit alpha-1H (Homo sapiens, UniProt O95180)", "sequence (O95180 whole entry)": "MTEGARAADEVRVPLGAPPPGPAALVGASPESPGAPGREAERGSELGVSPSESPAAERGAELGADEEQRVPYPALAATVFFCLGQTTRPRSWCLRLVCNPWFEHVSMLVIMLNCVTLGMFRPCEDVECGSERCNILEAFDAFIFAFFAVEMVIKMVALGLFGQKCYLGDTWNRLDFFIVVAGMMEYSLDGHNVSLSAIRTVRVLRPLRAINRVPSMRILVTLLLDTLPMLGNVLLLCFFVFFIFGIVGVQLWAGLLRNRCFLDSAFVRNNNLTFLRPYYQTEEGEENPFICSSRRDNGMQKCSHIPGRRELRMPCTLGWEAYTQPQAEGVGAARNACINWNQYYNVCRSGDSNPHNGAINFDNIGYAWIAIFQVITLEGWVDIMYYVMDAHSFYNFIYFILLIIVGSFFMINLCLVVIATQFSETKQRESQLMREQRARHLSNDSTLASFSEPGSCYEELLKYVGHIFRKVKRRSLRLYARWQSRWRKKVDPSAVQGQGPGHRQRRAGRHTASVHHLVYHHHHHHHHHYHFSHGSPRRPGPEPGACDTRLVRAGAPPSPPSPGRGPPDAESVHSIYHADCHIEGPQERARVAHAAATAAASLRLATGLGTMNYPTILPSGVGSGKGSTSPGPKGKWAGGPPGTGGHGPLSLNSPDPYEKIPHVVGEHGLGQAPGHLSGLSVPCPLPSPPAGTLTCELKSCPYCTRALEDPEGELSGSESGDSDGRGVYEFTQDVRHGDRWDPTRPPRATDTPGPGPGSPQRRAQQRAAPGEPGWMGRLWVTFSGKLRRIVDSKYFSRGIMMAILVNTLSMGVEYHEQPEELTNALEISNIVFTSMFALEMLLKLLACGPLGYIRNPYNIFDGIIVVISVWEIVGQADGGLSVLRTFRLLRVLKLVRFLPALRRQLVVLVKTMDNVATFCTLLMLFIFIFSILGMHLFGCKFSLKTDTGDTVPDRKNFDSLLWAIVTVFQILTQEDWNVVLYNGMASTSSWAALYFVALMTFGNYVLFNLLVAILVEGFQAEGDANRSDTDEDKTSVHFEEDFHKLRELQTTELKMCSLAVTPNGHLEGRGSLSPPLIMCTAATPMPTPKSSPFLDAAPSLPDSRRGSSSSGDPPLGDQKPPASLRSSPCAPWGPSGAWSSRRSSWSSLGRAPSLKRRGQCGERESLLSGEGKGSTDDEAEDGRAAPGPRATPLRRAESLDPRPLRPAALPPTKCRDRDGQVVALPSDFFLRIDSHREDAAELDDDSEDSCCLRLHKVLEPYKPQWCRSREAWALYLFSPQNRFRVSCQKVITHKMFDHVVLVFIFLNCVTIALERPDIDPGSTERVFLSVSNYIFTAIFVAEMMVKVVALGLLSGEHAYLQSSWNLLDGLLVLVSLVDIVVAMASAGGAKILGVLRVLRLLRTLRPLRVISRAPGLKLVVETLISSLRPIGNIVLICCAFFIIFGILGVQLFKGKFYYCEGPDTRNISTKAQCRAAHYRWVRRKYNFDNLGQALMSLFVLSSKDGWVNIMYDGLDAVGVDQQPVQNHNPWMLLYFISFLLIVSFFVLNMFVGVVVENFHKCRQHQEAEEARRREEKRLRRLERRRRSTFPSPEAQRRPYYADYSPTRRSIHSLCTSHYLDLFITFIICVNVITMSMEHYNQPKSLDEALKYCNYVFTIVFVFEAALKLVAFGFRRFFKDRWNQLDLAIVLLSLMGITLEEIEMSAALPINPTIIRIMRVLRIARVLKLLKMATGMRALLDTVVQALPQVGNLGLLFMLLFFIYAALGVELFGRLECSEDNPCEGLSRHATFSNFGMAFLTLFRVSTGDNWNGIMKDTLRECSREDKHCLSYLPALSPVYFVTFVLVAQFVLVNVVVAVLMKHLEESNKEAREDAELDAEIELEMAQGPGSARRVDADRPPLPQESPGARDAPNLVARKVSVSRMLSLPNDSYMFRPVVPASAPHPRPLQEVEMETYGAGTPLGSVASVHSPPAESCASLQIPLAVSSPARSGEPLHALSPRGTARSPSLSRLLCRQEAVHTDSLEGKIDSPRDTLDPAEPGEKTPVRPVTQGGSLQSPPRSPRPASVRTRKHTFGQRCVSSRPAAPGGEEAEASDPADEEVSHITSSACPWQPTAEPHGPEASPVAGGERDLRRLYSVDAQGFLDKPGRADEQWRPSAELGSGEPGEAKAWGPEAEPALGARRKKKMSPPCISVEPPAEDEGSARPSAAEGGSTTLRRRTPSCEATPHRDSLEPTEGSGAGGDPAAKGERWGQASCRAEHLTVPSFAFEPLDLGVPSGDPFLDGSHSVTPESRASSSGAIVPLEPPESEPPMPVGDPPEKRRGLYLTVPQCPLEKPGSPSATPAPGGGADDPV", "assay": "inhibition of CACNA1H calcium flux – cell-based, SynthLib3 library, HEK293 Cav3.2, fluorescence (AID 493041)", "assay_type": "functional"}, "[12]": {"biological_target": "T7, Microphthalmia-associated transcription factor (Homo sapiens, UniProt O75030)", "T7 sequence (O75030 whole entry)": "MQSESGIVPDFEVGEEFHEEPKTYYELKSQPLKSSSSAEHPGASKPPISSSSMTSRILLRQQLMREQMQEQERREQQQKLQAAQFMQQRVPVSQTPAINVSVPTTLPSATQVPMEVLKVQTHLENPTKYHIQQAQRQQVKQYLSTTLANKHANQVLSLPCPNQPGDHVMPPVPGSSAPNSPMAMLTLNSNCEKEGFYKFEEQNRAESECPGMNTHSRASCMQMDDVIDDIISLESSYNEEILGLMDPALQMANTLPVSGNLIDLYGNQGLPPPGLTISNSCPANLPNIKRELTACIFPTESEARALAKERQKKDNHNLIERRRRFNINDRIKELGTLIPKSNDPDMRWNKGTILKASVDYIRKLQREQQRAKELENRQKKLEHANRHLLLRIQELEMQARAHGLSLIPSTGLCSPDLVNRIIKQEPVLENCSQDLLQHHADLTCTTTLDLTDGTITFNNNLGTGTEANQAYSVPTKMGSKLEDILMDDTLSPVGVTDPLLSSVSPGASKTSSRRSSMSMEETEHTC", "assay": "reducers of TRPM1 reporter luminescence, concentration series – cell-based, SK-MEL-5, cherry-picked, set 3, MITF inhibitor project, dose response (AID 493073);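 also: SK-MEL-5 melanoma cells with luciferase driven by the MITF target TRPM1 promoter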", "assay_type": "functional"}, "Nonstructural protein 1": {"biological_target": "Nonstructural protein 1 (Influenza A virus, UniProt Q194T2)", "sequence (Q194T2 whole entry)": "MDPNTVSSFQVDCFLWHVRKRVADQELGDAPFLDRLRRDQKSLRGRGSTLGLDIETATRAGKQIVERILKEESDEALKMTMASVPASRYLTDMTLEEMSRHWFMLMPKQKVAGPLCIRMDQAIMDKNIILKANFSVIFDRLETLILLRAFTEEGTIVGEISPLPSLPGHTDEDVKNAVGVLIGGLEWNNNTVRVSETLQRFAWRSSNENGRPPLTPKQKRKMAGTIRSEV", "assay_type": "functional, Influenza A virus (A/California/07/2009(H1N1))"}, "[13]": {"assay": "Counterscreen for AddAB inhibitors: absorbance-based bacterial cell-based high throughput dose response assay for inhibitors of bacterial viability. [Related pubchem assays (depositor defined):AID435030, AID449728, AID449731, AID488942, AID488955, AID488956]", "assay_type": "functional"}, "Exodeoxyribonuclease V": {"biological_target": "Exodeoxyribonuclease V (Escherichia coli (strain K12), UniProt P04993+P07648+P08394)", "assay": "RecBCD inhibition via phage-restricted bacterial growth – absorbance, V66 E. coli, mutant T4 phage, counter-screen for AddAB inhibitor project, dose response (AID 492957)", "assay_type": "functional, cell-based, Escherichia coli str. K-12 substr. MG1655"}},
  "note": "Active and inactive are the calls of the source.",
  "data": [
    {"smiles": "CCOc1ccccc1C(=O)NC1CC2CCCC(C1)N2Cc1ccc(C)cc1", "note": "(stereo unspecified)", "values": [
      {"measurement": "IC50", "setting": "[1]", "value": 21.7, "unit": "µM"},
      {"measurement": "IC50", "setting": "[2]", "value": "4.81 µM (active)"},
      {"measurement": "EC50", "setting": "Mu-type opioid receptor", "value": "> 32 µM (inactive)"},
      {"measurement": "EC50", "setting": "[3]", "value": "> 32 µM (inactive)"},
      {"measurement": "IC50", "setting": "[4]", "value": "> 32 µM (inactive)"},
      {"measurement": "EC50", "setting": "Beta-galactosidase", "value": "> 31.5 µM (inactive)"}
    ]},
    {"smiles": "CCCN(CCC)Cc1c(C(=O)NN=C/C(C)=C\\c2ccco2)nnn1-c1nonc1N", "values": [
      {"measurement": "EC50", "setting": "Cannabinoid receptor 2 [5]", "value": "> 32 µM (inactive)"},
      {"measurement": "IC50", "setting": "Cannabinoid receptor 1", "value": "> 32 µM (inactive)"},
      {"measurement": "EC50", "setting": "[6]", "value": "0.597 µM (active)"},
      {"measurement": "IC50", "setting": "Cannabinoid receptor 2 [7]", "value": "> 32 µM (inactive)"}
    ]},
    {"smiles": "O=C1Nc2ccccc2/C1=C1/SC(=S)N(NC(=O)c2ccccc2)C1=O", "values": [
      {"measurement": "IC50", "setting": "[8]", "value": "3.09 µM (active)"},
      {"measurement": "IC50", "setting": "Aminopeptidase N", "value": "11.2 µM (active)"},
      {"measurement": "IC50", "setting": "Procathepsin L", "value": "38.3 µM (not active)"},
      {"measurement": "IC50", "setting": "Aspartyl aminopeptidase", "value": "> 73.5 µM (not active)"},
      {"measurement": "IC50", "setting": "[9]", "value": "> 100 µM (inactive)"},
      {"measurement": "IC50", "setting": "[10]", "value": "6.46 µM (active)"}
    ]},
    {"smiles": "CC(C)CCN1CC2CCC(NC(=O)c3cc(Cl)cc(Cl)c3)C2C1", "note": "(stereo unspecified)", "values": [
      {"measurement": "EC50", "setting": "[11]", "value": "1.8 µM (active)"}
    ]},
    {"smiles": "O=C(O)c1cccc(NC(=S)N/N=C/c2ccccn2)c1", "values": [
      {"measurement": "AC50", "setting": "[12]", "value": "8.63 µM (active)"},
      {"measurement": "IC50", "setting": "Nonstructural protein 1", "value": "4.06 µM (active)"},
      {"measurement": "IC50", "setting": "[13]", "value": "> 119 µM (inactive)"},
      {"measurement": "IC50", "setting": "Exodeoxyribonuclease V", "value": "> 119 µM (inactive)"}
    ]}
  ]
}
